Measured values reported in patent US10981926B2 (Janssen Pharmaceutica NV, priority 2016, dated 2021).

Columns and labels:
[1] = target: T1, wild-type Androgen Receptor (AR-wt) (Homo sapiens (Human), UniProt P10275); assay: LNCaP-AR-wt AG reporter assay (agonist mode); type: cell-based; conditions: for EC50: read-out: LNCaP-AR-wt AG pEC50 (converted); for Emax: read-out: LNCaP-AR-wt AG MAX % Stim
[2] = target: T2, F876L mutant Androgen Receptor (AR-F876L) (Homo sapiens (Human), UniProt P10275, F877L); assay: LNCaP-AR-F876L ANT reporter assay (antagonist mode); type: cell-based; conditions: for IC50: read-out: LNCaP-AR-F876L ANT pIC50 (converted); for Emax: read-out: LNCaP-AR-F876L ANT MAX % Inh
[3] = system: rGABA-gated Cl− channel; assay: GABA-Gated Cl Channel Antagonist Radioligand Binding Assay; design: species or system rat; conditions: 10 μM single point, [35S]-TBPS, cerebral cortex membrane homogenates
Procedure: GABA-gated C1 Chanel assays were performed at CEREP according to the following method. Membrane homogenates of cerebral cortex (120 μg protein) were incubated for 120 min at 22° C. with 3 nM […] in the absence or presence of the test compound in a buffer containing 50 mM Na2HPO4/KH2PO4 (pH 7.4) and 500 mM NaCl. Nonspecific binding was determined in the presence of 20 μM picrotoxinin. Following incubation, the samples were filtered rapidly under vacuum through glass fiber filters (GF/B, Packard) presoaked with 0.3% PEI and rinsed several times with ice-cold 50 mM Tris-HCl using a 96-sample cell harvester (Unifilter, Packard). The filters were dried then counted for radioactivity in a scintillation counter (Topcount, Packard) using a scintillation cocktail (Microscint 0, Packard). The results are expressed as a percent inhibition of the control radio ligand specific binding. The standard reference compound is picrotoxinin, which was tested in each experiment at several concentrations to obtain a competition curve from which its IC50 was calculated. In this assay, the following representative compounds disclosed herein had recorded activities at a 10 μM single point concentration in the GABA-gated Cl— Channel Binding Assay.

[4] = target: T2, F876L mutant Androgen Receptor (AR-F876L); assay: LNCaP-AR-F876L AG reporter assay (agonist mode); type: cell-based; conditions: for EC50: read-out: LNCaP-AR-F876L AG pEC50 (converted); for Emax: read-out: LNCaP-AR-F876L AG MAX % Stim
[5] = target: T1, wild-type Androgen Receptor (AR-wt); assay: LNCaP-AR-wt ANT reporter assay (antagonist mode); type: cell-based; conditions: for IC50: read-out: LNCaP-AR-wt ANT pIC50 (converted); for Emax: read-out: LNCaP-AR-wt ANT MAX % Inh
[6] = agonist mode, pEC50 = −Log10(EC50 in Molar)
[7] = maximum % stimulation (agonist response) over the tested concentration range
[8] = antagonist mode, pIC50 = −Log10(IC50 in Molar)
[9] = maximum % inhibition of R1881 control response over the tested concentration range
[10] = agonist mode, maximum % stimulation over tested concentration range
[11] = antagonist mode, maximum % inhibition of R1881 control response over tested concentration range

T2 sequence (P10275 whole entry F877L): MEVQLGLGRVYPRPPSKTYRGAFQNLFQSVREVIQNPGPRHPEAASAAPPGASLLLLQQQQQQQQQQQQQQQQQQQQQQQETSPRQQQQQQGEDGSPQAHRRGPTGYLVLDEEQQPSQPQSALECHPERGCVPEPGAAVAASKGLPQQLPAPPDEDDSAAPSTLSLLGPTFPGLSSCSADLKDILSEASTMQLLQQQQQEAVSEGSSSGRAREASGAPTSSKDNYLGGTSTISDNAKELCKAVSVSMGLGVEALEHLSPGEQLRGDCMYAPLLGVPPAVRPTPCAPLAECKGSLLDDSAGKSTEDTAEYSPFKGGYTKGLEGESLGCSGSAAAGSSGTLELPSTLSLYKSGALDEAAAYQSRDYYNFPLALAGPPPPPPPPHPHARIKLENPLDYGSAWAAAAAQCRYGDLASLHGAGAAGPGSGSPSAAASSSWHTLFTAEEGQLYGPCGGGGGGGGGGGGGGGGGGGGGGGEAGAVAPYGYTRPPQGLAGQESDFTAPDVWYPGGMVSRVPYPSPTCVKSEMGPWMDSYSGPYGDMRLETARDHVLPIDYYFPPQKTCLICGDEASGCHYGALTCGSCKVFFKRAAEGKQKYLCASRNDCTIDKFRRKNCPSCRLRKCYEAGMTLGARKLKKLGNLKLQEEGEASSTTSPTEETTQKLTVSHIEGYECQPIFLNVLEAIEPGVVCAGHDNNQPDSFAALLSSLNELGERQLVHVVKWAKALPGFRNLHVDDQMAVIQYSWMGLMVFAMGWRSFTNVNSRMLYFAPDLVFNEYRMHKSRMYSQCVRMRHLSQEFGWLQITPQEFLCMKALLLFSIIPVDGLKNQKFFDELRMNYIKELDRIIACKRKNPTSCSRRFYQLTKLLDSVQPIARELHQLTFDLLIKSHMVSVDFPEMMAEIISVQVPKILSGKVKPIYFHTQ
T1 sequence (P10275 whole entry): as the sequence (P10275 whole entry F877L) above, with L877F counted along it

Row | Compound | rGABA-gated Cl− channel % inh @10 μM [3] [%] | EC50 [1, 6] [nM] | Emax [1, 7] [%] | IC50 [2, 8] [nM] | Emax [2, 9] [%] | EC50 [4, 6] [nM] | Emax [4, 7] [%] | IC50 [5, 8] [nM] | Emax [5, 9] [%] | Emax [1, 10] [%] | Emax [2, 11] [%] | Emax [4, 10] [%] | Emax [5, 11] [%] | further results
1 | 3-chloro-5-[8-[2-(1-methyl-4-piperidyl)indazol-5-yl]-5-oxo-7-thioxo-6,8-diazaspiro[3.4]octan-6-yl]pyridine-2-carbonitrile [Cpd 181] | 26.0 | – | – | – | – | – | – | – | – | – | – | – | – | LNCaP-AR-wt AG pEC50 [1, 6]: <4.82; LNCaP-AR-wt AG MAX % Stim [1, 7]: 1.9%; LNCaP-AR-F876L ANT pIC50 [2, 8]: 6.80; LNCaP-AR-F876L ANT MAX % Inh [2, 9]: 101.9%; LNCaP-AR-F876L AG pEC50 [4, 6]: <4.82; LNCaP-AR-F876L AG MAX % Stim [4, 7]: 0.3%; LNCaP-AR-wt ANT pIC50 [5, 8]: 6.47; LNCaP-AR-wt ANT MAX % Inh [5, 9]: 96.8%
2 | CN1CC[C@H](Oc2ccc(N3C(=S)N(c4cnc(C#N)c(C(F)(F)F)c4)C(=O)C34CCC4)cc2)[C@@H](F)C1 (racemic) [Cpd 92, 5-[8-[(3SR, 4SR)-4-[(3-fluoro-1-methyl-4-piperidyl)oxy]phenyl]-5-oxo-7-thioxo-6,8-diazaspiro[3.4]octan-6-yl]-3-(trifluoromethyl)pyridine-2-carbonitrile] | 73.4 | > 15100 | 0.3 | 60.3 | 98.2 | > 15100 | 0.5 | 77.6 | 101 | – | – | – | – | –
3 | N#Cc1ncc(N2C(=O)C3(CCC3)N(c3ccc(O[C@H]4CCNC[C@@H]4F)cc3)C2=S)cc1C(F)(F)F (racemic) [Cpd 95, 5-[8-[(3SR, 4SR)-4-[(3-fluoro-4-piperidyl)oxy]phenyl]-5-oxo-7-thioxo-6,8-diazaspiro[3.4]octan-6-yl]-3-(trifluoromethyl)pyridine-2-carbonitrile] | 26.5 | > 15100 | 0.1 | 44.7 | 99.7 | > 15100 | 0.3 | 112 | 101 | – | – | – | – | –
4 | N#Cc1ncc(N2C(=O)C3(CCC3)N(c3ccc(O[C@H]4CCNC[C@H]4F)cc3)C2=S)cc1C(F)(F)F (racemic) [Cpd 96, 5-[8-(3RS, 4SR) [4-[(3-fluoro-4-piperidyl)oxy]phenyl]-5-oxo-7-thioxo-6,8-diazaspiro[3.4]octan-6-yl]-3-(trifluoromethyl)pyridine-2-carbonitrile] | 26.5 | > 15100 | 0.9 | 74.1 | 99.9 | > 15100 | 0.4 | 126 | 100 | – | – | – | – | –
5 | N#Cc1ncc(N2C(=O)C3(CCC3)N(c3ccc(O[C@@H]4CCN[C@H](C(F)(F)F)C4)cc3)C2=S)cc1C(F)(F)F (racemic) [Cpd 101, 5-[5-oxo-7-thioxo-8-[4-[[(2SR,4RS)-2-(trifluoromethyl)-4-piperidyl]oxy]phenyl]-6,8-diazaspiro[3.4]octan-6-yl]-3-(trifluoromethyl)pyridine-2-carbonitrile] | 83.9 | > 15100 | 0.3 | 123 | 98.3 | > 15100 | 0.7 | 155 | 102 | – | – | – | – | –
6 | CN1CC[C@H](Oc2ccc(N3C(=S)N(c4cnc(C#N)c(C(F)(F)F)c4)C(=O)C34CCC4)cc2)[C@H](F)C1 (racemic) [Cpd 102] | 52.1 | > 15100 | 0.4 | 49 | 99.6 | > 15100 | 0.3 | 79.4 | 99.7 | – | – | – | – | –
7 | N#Cc1ncc(N2C(=O)C3(CCC3)N(c3ccc(OC4CCNC(=O)C4)cc3)C2=S)cc1C(F)(F)F (racemic) [Cpd 195, (R,S)-5-[5-oxo-8-[4-[(2-oxo-4-piperidyl)oxy]phenyl]-7-thioxo-6,8-diazaspiro[3.4]octan-6-yl]-3-(trifluoromethyl)pyridine-2-carbonitrile] | 94.2 | > 15100 | – | 174 | – | > 15100 | – | 186 | – | 0 | 100 | 0.6 | 102 | –
8 | Cc1cc(N2C(=O)C3(CCC3)N(c3cnc(OC4CCN(CCO)CC4)nc3)C2=S)cnc1C#N [Cpd 254, 5-[8-[2-[[1-(2-hydroxyethyl)-4-piperidyl]oxy]pyrimidin-5-yl]-5-oxo-7-thioxo-6,8-diazaspiro[3,4]octan-6-yl]-3-methyl-pyridine-2-carbonitrile] | – | > 15100 | – | 708 | – | > 15100 | – | 891 | – | -0.1 | 99.3 | 0.4 | 0 | –

Now from value to compound, other results behind:

Row | rGABA-gated Cl− channel % inh @10 μM [3] [%] | EC50 [1, 6] [nM] | Emax [1, 7] [%] | IC50 [2, 8] [nM] | Emax [2, 9] [%] | EC50 [4, 6] [nM] | Emax [4, 7] [%] | IC50 [5, 8] [nM] | Emax [5, 9] [%] | Emax [1, 10] [%] | Emax [2, 11] [%] | Emax [4, 10] [%] | Emax [5, 11] [%] | Compound | further results
9 | 87.1 | > 15100 | 0.1 | 219 | 99.7 | > 15100 | 0.7 | 174 | 102 | – | – | – | – | N#Cc1ncc(N2C(=O)C3(CCC3)N(c3ccc(O[C@@H]4CCN[C@@H](C(F)(F)F)C4)cc3)C2=S)cc1C(F)(F)F (racemic) [Cpd 106, 5-[5-oxo-7-thioxo-8-[4-[[(2RS,4RS)-2-(trifluoromethyl)-4-piperidyl]oxy]phenyl]-6,8-diazaspiro[3.4]octan-6-yl]-3-(trifluoromethyl)pyridine-2-carbonitrile] | –
10 | 90.4 | > 15100 | – | 81.3 | – | > 15100 | – | 69.2 | – | 0 | 99.1 | 1.7 | 100 | CN1CCC(Oc2ccc(N3C(=S)N(c4cnc(C#N)c(C(F)(F)F)c4)C(=O)C34CCC4)cc2)CC1=O (racemic) [Cpd 189, (R,S)-5-[8-[4-[(1-methyl-2-oxo-4-piperidyl)oxy]phenyl]-5-oxo-7-thioxo-6,8-diazaspiro[3.4]octan-6-yl]-3-(trifluoromethyl)pyridine-2-carbonitrile] | –
11 | 61.4 | > 15100 | – | 81.3 | – | > 15100 | – | 129 | – | 2.3 | 99.6 | 0.2 | 99.6 | N#Cc1ncc(N2C(=O)C3(CCC3)N(c3ccc(O[C@H]4CCN[C@H](CO)C4)cc3)C2=S)cc1C(F)(F)F (racemic) [Cpd 222, 5-[8-(2SR,4SR)[4-[[2-(hydroxymethyl)-4-piperidyl]oxy]phenyl]-5-oxo-7-thioxo-6,8-diazaspiro[3.4]octan-6-yl]-3-(trifluoromethyl)pyridine-2-carbonitrile] | –
12 | 82.7 | – | – | – | – | – | – | – | – | – | – | – | – | N#Cc1ncc(N2C(=O)C3(CCC3)N(c3ccc(C4=CCCC(CO)O4)cc3)C2=S)cc1C(F)(F)F (stereo not shown) [Cpd 103, 5-(5-(4-(2-(hydroxymethyl)-3,4-dihydro-2H-pyran-6-yl)phenyl)-8-oxo-6-thioxo-5,7-diazaspiro[3.4]octan-7-yl)-3-(trifluoromethyl)picolinonitrile] | –
13 | – | > 15100 | – | 2750 | – | > 15100 | – | 2510 | – | 0.4 | 99 | 0.1 | 94.7 | Cn1c(CCO)nc2cc(N3C(=S)N(c4cnc(C#N)c(C(F)(F)F)c4)C(=O)C34CCC4)ccc21 [Cpd 255, 5-[8-[2-(2-hydroxyethyl)-1-methyl-benzimidazol-5-yl]-5-oxo-7-thioxo-6,8-diazaspiro[3.4]octan-6-yl]-3-(trifluoromethyl)pyridine-2-carbonitrile] | –
14 | – | > 15100 | – | 1350 | – | > 15100 | – | 4790 | – | 0.4 | 96.8 | 0.6 | 95.9 | CN1CCC(c2nc3cc(N4C(=S)N(c5cnc(C#N)c(C(F)(F)F)c5)C(=O)C45CCC5)ccc3[nH]2)CC1 [Cpd 256, 5-[8-[2-(1-methyl-4-piperidyl)-1H-benzimidazol-5-yl]-5-oxo-7-thioxo-6,8-diazaspiro[3.4]octan-6-yl]-3-(trifluoromethyl)pyridine-2-carbonitrile] | –
